Results reported in patent publication US9328122B2, “7-substituted Hanfangichin B derivative, and preparation method and use thereof” (HANGZHOU BENSHENG PHARMACEUTICAL CO., LTD., priority 2012, dated 2016).
In brackets after ≈: the same amount, converted by molar mass.

Legend:
[1] = system: H9 (acute lymphoblastic leukemia) cells; assay: MTT cell growth inhibition, leukemia cells; format: cell-based, human; conditions: Homo sapiens, H9, 72 h, MTT
Excerpt: (§1) Leukemia cell lines: leukemia cell lines: K562adr (drug-resistant, chronic myeloid leukemia, CML), NB4 (acute promyelocytic leukemia, AML), Kasumi-1 (acute myeloid leukemia M2 type, AML-M2), Jurkat (acute lymphoblastic leukemia, ALL), all of which were donated by Cancer Research Institute of Zhejiang University, China; and H9 (acute lymphoblastic leukemia, ALL), which was purchased from China Center for Type Culture Collection.
(§2) Reagents: The standard sample of fangchinoline (FAN) was purchased from Ci Yuan Biotechnology Co., Ltd., Shaanxi, China; and the 7-substituted fangchinoline derivatives according to the present invention.
(§3) 6000 well-growing leukemia cells were obtained and inoculated into wells of a 96-well cell culture plate. The culture medium was a RPMI-1640 cell culture medium containing 10% fetal bovine serum. After adding the 7-substituted fangchinoline derivatives of different concentrations the next day and mixing uniformly, the plate was placed in a carbon dioxide cell incubator (5% CO2) at 37° C. and incubating for 72 hours. Then the viable cell concentration was determined by the MTT method.

[2] = system: Jurkat (acute lymphoblastic leukemia) cells; assay: MTT cell growth inhibition, leukemia cells; format: cell-based, human; conditions: Homo sapiens, Jurkat, 72 h, MTT
Excerpt: as §1, §2, §3

[3] = system: Kasumi-1 (acute myeloid leukemia M2 type) cells; assay: MTT cell growth inhibition, leukemia cells; format: cell-based, human; conditions: Homo sapiens, Kasumi-1, 72 h, MTT
Excerpt: as §1, §2, §3

[4] = system: RPMI 8226 (multiple myeloma) cells; assay: MTT cell growth inhibition, multiple myeloma cells; format: cell-based, human; conditions: Homo sapiens, RPMI 8226, 72 h, MTT
Experimental: Myeloma cell lines: RPMI8226 (multiple myeloma), purchased from Fuxiang Bio-tech Co. Ltd., Shanghai, China.
6000 well-growing cells were obtained and inoculated into wells of a 96-well cell culture plate. The culture medium was a RPMI-1640 cell culture medium containing 10% fetal bovine serum. After adding the 7-substituted fangchinoline derivatives of different concentrations the next day and mixing uniformly, the plate was placed in a carbon dioxide cell incubator (5% CO2) at 37° C. and incubated for 72 hours. Then the viable cell concentration was determined by the MTT method.

[5] = system: RKO (human colon adenocarcinoma) cells; assay: MTT cell growth inhibition, solid tumor cells; format: cell-based; conditions: Homo sapiens, RKO, 72 h, MTT
Excerpt: (§4) Hep-2 (laryngeal carcinoma), A549 (human lung cancer), CaES-17 (esophageal cancer cell), PC-3 (prostate cancer), CNE (nasopharyngeal carcinoma cell) and SK-OV-3 (ovarian cancer cell), all of which were purchased from China Center For Type Culture Collection; RKO (human colon adenocarcinoma cell), MGC-803 (human gastric cancer cell), MG-63 (osteosarcoma), and U87-MG (malignant glioma cell), all of which were purchased from Fuxiang Bio-tech Co. Ltd., Shanghai, China; PANC-1 (pancreatic cancer), Becap37 (human breast cancer cell), Hela (human cervical cancer cell) and Hep G2 (human liver cancer cell), all of which were donated by Cancer Research Institute of Zhejiang University, China.
(§5) 6000 well-growing human solid tumor cells were obtained and inoculated into wells of a 96-well cell culture plate. The culture medium was DMEM High Glucose cell culture medium containing 10% fetal bovine serum. The plate was placed in a carbon dioxide cell incubator (5% CO2) at 37° C. and incubated for 24 hours. After added with 7-substituted fangchinoline derivatives of different concentration and mixing uniformly, the plate was placed in a carbon dioxide cell incubator (5% CO2) at 37° C. and incubated for 72 hours. Then the viable cell concentration was determined by the MTT method.

[6] = system: MGC-803 (human gastric cancer) cells; assay: MTT cell growth inhibition, solid tumor cells; format: cell-based; conditions: MGC-803, 72 h, MTT
Excerpt: as §4, §5

[7] = system: Becap-37 (human breast cancer) cells; assay: MTT cell growth inhibition, solid tumor cells; format: cell-based; conditions: Homo sapiens, Becap-37, 72 h, MTT
Excerpt: as §4, §5

[8] = system: MG-63 (osteosarcoma) cells; assay: MTT cell growth inhibition, solid tumor cells; format: cell-based; conditions: Homo sapiens, MG-63, 72 h, MTT
Excerpt: as §4, §5

[9] = system: A549 (human lung cancer) cells; assay: MTT cell growth inhibition, solid tumor cells; format: cell-based; conditions: Homo sapiens, A549, 72 h, MTT
Excerpt: as §4, §5

[10] = system: Hep G2 (human liver cancer) cells; assay: MTT cell growth inhibition, solid tumor cells; format: cell-based; conditions: Homo sapiens, HepG2, Hep G2, 72 h, MTT
Excerpt: as §4, §5

[11] = system: U87-MG (malignant glioma) cells; assay: MTT cell growth inhibition, solid tumor cells; format: cell-based; conditions: Homo sapiens, U-87 MG, U87-MG, 72 h, MTT
Excerpt: as §4, §5

[12] = system: Hela (human cervical cancer) cells; assay: MTT cell growth inhibition, solid tumor cells; format: cell-based; conditions: Homo sapiens, Hela, 72 h, MTT
Excerpt: as §4, §5

[13] = system: Hep-2 (laryngeal carcinoma) cells; assay: MTT cell growth inhibition, solid tumor cells; format: cell-based; conditions: Homo sapiens, Hep-2, 72 h, MTT
Excerpt: as §4, §5

[14] = system: tumor; assay: Antitumor activity compared with fangchinoline, overall statement; format: cell-based; conditions: tumor type not specified
[15] = system: CNE (nasopharyngeal carcinoma) cells; assay: MTT cell growth inhibition, solid tumor cells; format: cell-based, human; conditions: Homo sapiens, CNE, 72 h, MTT
Excerpt: as §4, §5

[16] = system: SK-OV-3 (ovarian cancer) cells; assay: MTT cell growth inhibition, solid tumor cells; format: cell-based, human; conditions: Homo sapiens, SK-OV-3, 72 h, MTT
Excerpt: as §4, §5

[17] = system: PC-3 (prostate cancer) cells; assay: MTT cell growth inhibition, solid tumor cells; format: cell-based, human; conditions: Homo sapiens, PC-3, 72 h, MTT
Excerpt: as §4, §5

[18] = system: PANC-1 (pancreatic cancer) cells; assay: MTT cell growth inhibition, solid tumor cells; format: cell-based, human; conditions: Homo sapiens, PANC-1, 72 h, MTT
Excerpt: as §4, §5

Molecule `C=CCN(C)CC(O)COc1c(OC)cc2c3c1Oc1cc4c(cc1OC)CCN(C)[C@H]4Cc1ccc(cc1)Oc1cc(ccc1OC)C[C@@H]3N(C)CC2` (some centres unmarked) [BS-FC-409] has an IC50 ([1]; read-out: IC50) of 0.9 µg/mL (≈ 1.22 µM), an IC90 ([1]; read-out: IC90) of 2 µg/mL (≈ 2.72 µM) and an IC50 ([2]; read-out: IC50) of 1.02 µg/mL (≈ 1.39 µM). It also gave an IC90 ([2]; read-out: IC90) of 3.33 µg/mL (≈ 4.52 µM), an IC50 ([3]; read-out: IC50) of 1.46 µg/mL (≈ 1.98 µM) and an IC90 ([3]; read-out: IC90) of 4.82 µg/mL (≈ 6.55 µM). The IC50 ([4]; read-out: IC50) was 0.04 µg/mL (≈ 0.0544 µM), the IC90 ([4]; read-out: IC90) was 0.5 µg/mL (≈ 0.679 µM) and the IC50 ([5]; read-out: IC50) was 0.65 µg/mL (≈ 0.883 µM). The IC90 ([5]; read-out: IC90) was 1.27 µg/mL (≈ 1.73 µM), the IC50 ([6]; read-out: IC50) was 0.94 µg/mL (≈ 1.28 µM) and the IC90 ([6]; read-out: IC90) was 16 µg/mL (≈ 21.7 µM). For the same molecule, the IC50 ([7]; read-out: IC50) was 1.44 µg/mL (≈ 1.96 µM), the IC90 ([7]; read-out: IC90) was 4.8 µg/mL (≈ 6.52 µM) and the IC50 ([8]; read-out: IC50) was 1.1 µg/mL (≈ 1.49 µM). For the same molecule, the IC90 ([8]; read-out: IC90) was 1.99 µg/mL (≈ 2.7 µM), the IC50 ([9]; read-out: IC50) was 2.98 µg/mL (≈ 4.05 µM) and the IC90 ([9]; read-out: IC90) was 8.43 µg/mL (≈ 11.5 µM). The IC50 ([10]; read-out: IC50) was 1.27 µg/mL (≈ 1.73 µM), the IC90 ([10]; read-out: IC90) was 3.24 µg/mL (≈ 4.4 µM) and the IC50 ([11]; read-out: IC50) was 1.07 µg/mL (≈ 1.45 µM). The IC90 ([11]; read-out: IC90) was 2.68 µg/mL (≈ 3.64 µM), the IC50 ([12]; read-out: IC50) was 1.05 µg/mL (≈ 1.43 µM) and the IC90 ([12]; read-out: IC90) was 3.52 µg/mL (≈ 4.78 µM). The IC50 ([13]; read-out: IC50) was 1.79 µg/mL (≈ 2.43 µM), the IC90 ([13]; read-out: IC90) was 5.54 µg/mL (≈ 7.53 µM) and the “antitumor activity compared with that of fangchinoline” value [14] was “significantly superior”. It also gave an IC50 ([15]; read-out: IC50) of 0.95 µg/mL (≈ 1.29 µM), an IC90 ([15]; read-out: IC90) of 3.94 µg/mL (≈ 5.35 µM) and an IC50 ([16]; read-out: IC50) of 2.82 µg/mL (≈ 3.83 µM). For the same molecule, the IC90 ([16]; read-out: IC90) was 9.85 µg/mL (≈ 13.4 µM), the IC50 ([17]; read-out: IC50) was 2.89 µg/mL (≈ 3.93 µM) and the IC90 ([17]; read-out: IC90) was 5.8 µg/mL (≈ 7.88 µM). For the same molecule, the IC50 ([18]; read-out: IC50) was 3.17 µg/mL (≈ 4.31 µM) and the IC90 ([18]; read-out: IC90) was 7.14 µg/mL (≈ 9.7 µM).
